Assay results as given in the supplement of paper PMC10307832.

Tests used:
Test in all cases: relative viability (nuclei count vs DMSO), 5 days (fraction); higher = more cells survive
[1] = compound: C1=CC2=C(C=C(C(=C2N=C1)O)N=NC3=CC4=C(C=C3)C=C(C=C4)S(=O)(=O)O)S(=O)(=O)O + COc1cc2c(Oc3ccc(NC(=O)C4(C(=O)Nc5ccc(F)cc5)CC4)cc3F)ccnc2cc1OCCCN1CCOCC1 [Foretinib] (partner 0.25 µM)
Method in brief: (§1)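 For relative viability, nuclei counts in treated wells were divided by those in vehicle wells. Lung cancer cell lines had been pin-tool dosed in 1536-well plates the day after seeding and cultured for 5 days, then fixed and stained in one step (final 0.05% Triton X-100, 1% formaldehyde, 1 ug/ml Hoechst) and imaged at 4×. Doses were one drug alone or a fixed anchor-drug dose plus five library-drug doses (not always all listed) in √10 steps, and values are duplicate-plate medians.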

[2] = compound: C1=CC2=C(C=C(C(=C2N=C1)O)N=NC3=CC4=C(C=C3)C=C(C=C4)S(=O)(=O)O)S(=O)(=O)O + Cc1nc(NC(=O)N2CCC[C@H]2C(N)=O)sc1-c1ccnc(C(C)(C)C(F)(F)F)c1 [Alpelisib] (partner 2 µM)
Method in brief: as §1

[3] = compound: C1=CC2=C(C=C(C(=C2N=C1)O)N=NC3=CC4=C(C=C3)C=C(C=C4)S(=O)(=O)O)S(=O)(=O)O + O=C(CCCCCCC(=O)Nc1ccccc1)NO [Vorinostat] (partner 1 µM)
Method in brief: as §1

AT-7519 + Vorinostat = compound: O=C(NC1CCNCC1)c1n[nH]cc1NC(=O)c1c(Cl)cccc1Cl [AT-7519] + O=C(CCCCCCC(=O)Nc1ccccc1)NO [Vorinostat] (partner 1 µM)
Method in brief: as §1

UMC-11 gave a relative viability ([1]; first compound 0.08 µM) of 1.13, a relative viability ([1]; first compound 0.253 µM) of 1.04 and a relative viability ([1]; first compound 0.8 µM) of 0.938. For the same cell line, the relative viability ([1]; first compound 2.53 µM) was 1.05, the relative viability ([1]; first compound 8 µM) was 1.01 and the relative viability ([2]; first compound 0.08 µM) was 1.12. It also gave a relative viability ([2]; first compound 0.253 µM) of 0.954, a relative viability ([2]; first compound 0.8 µM) of 0.918 and a relative viability ([2]; first compound 2.53 µM) of 0.88. For the same cell line, the relative viability ([2]; first compound 8 µM) was 0.824, the relative viability ([3]; first compound 0.08 µM) was 0.462 and the relative viability ([3]; first compound 0.253 µM) was 0.367. For the same cell line, the relative viability ([3]; first compound 0.8 µM) was 0.475, the relative viability ([3]; first compound 2.53 µM) was 0.403 and the relative viability ([3]; first compound 8 µM) was 0.392. For the same cell line, the relative viability (AT-7519 + Vorinostat; first compound 0.01 µM) was 0.324, the relative viability (AT-7519 + Vorinostat; first compound 0.03162 µM) was 0.379 and the relative viability (AT-7519 + Vorinostat; first compound 0.3162 µM) was 0.272. It also gave a relative viability (AT-7519 + Vorinostat; first compound 1 µM) of 0.205.
